What was measured:
Factor VII = conditions: LNP siRNA systems containing these lipids; cited from earlier work
HBG1/2 promoter = assay: Off-target transcriptional activation using RNAseq; type: cell-based
Experimental: FIG. 7A-7C: The plots of FIG. 7 illustrate embodiments in which dRNAs can specifically upregulate gene expression, and have a specificity profile similar to 20 bp sgRNA activators. Sequences targeted to the HBG1/2 promoter were tested for off-target transcriptional activation using RNAseq. 20 nt sgRNAs with MS2 binding loops were co-transfected with dCas9 and the MPH activation complex. […] (In all cases, N=3 replicates/group).

dystrophin = conditions: across 48 weeks, average; cited from earlier work
[1] = 20 nt sgRNA with MS2 loops + dCas9 + MPH

Q: Which “gene silencing potency series” value (Factor VII) does the source give for “1,2-dilinoleyloxy-keto-N,N-dimethyl-3-aminopropane [DLinKDMA]” here?
A: The value was “DLinKC2-DMA>DLinKDMA>DLinDMA>>DLinDAP”.

Q: Which “gene silencing potency series” value (Factor VII) does the source give for `CCCCC/C=C\C/C=C\CCCCCCCC(=O)OCC(CN(C)C)OC(=O)CCCCCCC/C=C\C/C=C\CCCCC` (stereo not drawn) [DLinDAP, 1,2-dilineoyl-3-dimethylammonium-propane] here?
A: Its value is “DLinKC2-DMA>DLinKDMA>DLinDMA>>DLinDAP”.

Q: With `CCCCC/C=C\C/C=C\CCCCCCCCOCC(CN(C)C)OCCCCCCCC/C=C\C/C=C\CCCCC` (stereo not drawn) [DLinDMA, 1,2-dilinoleyloxy-3-N,N-dirnethylamiopropane] as the compound, how does the “gene silencing potency series” value (Factor VII) read?
A: The value was “DLinKC2-DMA>DLinKDMA>DLinDMA>>DLinDAP”.

Q: With `CCCCC/C=C\C/C=C\CCCCCCCCC1(CCCCCCCC/C=C\C/C=C\CCCCC)OCC(CCN(C)C)O1` (stereo not drawn) [DLinKC2-DMA, 1,2-dilinoleyl-4-(2-dimethylaminoethyl)-[1,3]-dioxolane] as the compound, how does the “gene silencing potency series” value (Factor VII) read?
A: Its value is “DLinKC2-DMA>DLinKDMA>DLinDMA>>DLinDAP”.

Q: With “SEQ ID NO 90: 20 nt sgRNA with MS2 binding loops targeted to the HBG1/2 promoter, second guide (guide CCAGTGAGGCCAGGGGCCGG; listed as DNA, chemistry not given here)” as the compound, how does the “significantly upregulated genes apart from HBG1/2” value (HBG1/2 promoter; [1]) read?
A: The value was 55.

Q: Which “significantly upregulated genes apart from HBG1/2” value (HBG1/2 promoter; dRNA + active Cas9 + MPH) does the source give for “SEQ ID NO 97: dRNA targeted to the HBG1/2 promoter, second guide (guide GAGGCCAGGGGCCGG; listed as DNA, chemistry not given here)” here?
A: Its value is 31.

Q: With “SEQ ID NO 120: 20 nt sgRNA with MS2 binding loops targeted to the HBG1/2 promoter, first guide (guide GGCTAGGGATGAAGAATAAA; listed as DNA, chemistry not given here)” as the compound, how does the “significantly upregulated genes apart from HBG1/2” value (HBG1/2 promoter; [1]) read?
A: Its value is “Zero”.

Q: Which “significantly upregulated genes apart from HBG1/2” value (HBG1/2 promoter; dRNA + active Cas9 + MPH) does the source give for “SEQ ID NO 125: dRNA targeted to the HBG1/2 promoter, first guide (guide GGGATGAAGAATAAA; listed as DNA, chemistry not given here)” here?
A: The value was “Zero”.

Q: For eteplirsen, which “dystrophin positive fibers compared to baseline” value (dystrophin) is on record?
A: Its value is 47%.
